Test results published in ChEMBL document CHEMBL1201862, “PubChem BioAssay data set” (2004).
Values belong to the compound of their own block, whether it stands above or below them. Activity calls are given as the source filed them.

Columns and labels:
[1] = tested on: Streptococcus sp. 'group A'; test: Streptococcus pyogenes SK(-)GAS viability under kanamycin – luminescence, BacTiterGlo, confirmation, counter-screen for streptokinase expression inhibitor project, dose response (AID 1900); type: functional, organism-based
[2] = molecular target: Heat shock protein HSP 90-alpha (Homo sapiens, UniProt P07900); type: functional, organism-based
Troponin, cardiac muscle = Troponin, cardiac muscle (Homo sapiens, UniProt P19429+P45379+P63316); test: Fluorescence-based biochemical high throughput dose response assay for activators of the calcium sensitivity of cardiac Regulated Thin Filaments (RTF). [Related pubchem assays (depositor defined):AID493008, AID493018, AID504382, AID504383]; type: protein-complex assay
Streptococcus = test: GAS UMAA2166 growth inhibition – luminescence, BacTiterGlo, counter-screen for streptokinase expression inhibitor project, dose response (AID 1915); type: functional, organism-based;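 further: potency for reduction of bacterial viability or growth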
INS1 = test: INS-1E survival protection against cytokine death – cell-based, luminescence, retest, dose response (AID 449756); type: functional; settings: Rattus norvegicus;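 further: cell death triggered by IL-1 beta plus TNF-alpha plus IFN-gamma mixture; protective hits raise ATP signal compared with cytokine alone wells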
HEK293 [3] = test: NOD2 signaling inhibitors in MDP-stimulated cells, cell-based, uHTS, luminescence (AID 2001); type: functional; settings: Homo sapiens
HEK293 [4] = test: cells; type: functional, cell-based; settings: Homo sapiens
[5] = molecular target: T1, Heat shock factor protein 1 (Mus musculus, UniProt P38532); test: decrease of HSF1-responsive luciferase luminescence – cell-based, NIH3T3, dose retest, confirmation (AID 2382); type: functional;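 further: NIH3T3 fibroblasts with HSF1-driven luciferase reporter stressed by proteasome inhibitor MG132; luminescence from HSF1-driven luciferase expression after 8 hours of MG132 stress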
T1 sequence (P38532 whole entry): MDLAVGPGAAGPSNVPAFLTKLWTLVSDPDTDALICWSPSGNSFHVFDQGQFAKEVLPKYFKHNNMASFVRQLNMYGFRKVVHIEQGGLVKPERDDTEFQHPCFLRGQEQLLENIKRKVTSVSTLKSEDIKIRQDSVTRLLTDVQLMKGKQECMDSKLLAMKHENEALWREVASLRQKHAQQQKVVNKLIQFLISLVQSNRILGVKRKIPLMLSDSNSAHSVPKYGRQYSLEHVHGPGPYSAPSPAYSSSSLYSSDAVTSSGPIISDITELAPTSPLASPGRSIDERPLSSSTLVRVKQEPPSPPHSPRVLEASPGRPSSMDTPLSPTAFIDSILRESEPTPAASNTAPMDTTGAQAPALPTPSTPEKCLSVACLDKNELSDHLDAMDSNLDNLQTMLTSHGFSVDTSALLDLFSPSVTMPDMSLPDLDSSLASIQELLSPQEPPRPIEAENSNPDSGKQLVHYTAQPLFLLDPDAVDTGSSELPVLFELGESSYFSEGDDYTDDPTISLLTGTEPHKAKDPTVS

HEK293 [6] = test: inhibition of NOD1-driven NF-kB reporter – cell-based, luminescence, uHTS, primary screen (AID 1578); type: functional; settings: Homo sapiens
[7] = molecular target: Nucleotide-binding oligomerization domain-containing protein 2 (Homo sapiens, UniProt Q9HC29); test: inhibition of NOD2-driven NF-kB reporter – cell-based, luminescence, uHTS, HEK293 (AID 1566); type: functional
HEK293 [8] = test: cells; type: functional, cell-based; settings: Homo sapiens; remark: listed apart in the source
HEK293 [9] = test: cells; type: functional, cell-based; settings: Homo sapiens; remark: listed apart in the source
[10] = molecular target: Peroxisome proliferator-activated receptor gamma (Homo sapiens, UniProt P37231); test: PPARg transcriptional activation, reporter cells – cell-based, luminescence, assay provider, dose response (AID 504447); type: functional
Cannabinoid receptor 2 [11] = molecular target: T2, Cannabinoid receptor 2 (Homo sapiens, UniProt P34972); test: SAR analysis of antagonists of the Cannabinoid Receptor 2 using an Image-Based Assay - Set 2. [Related pubchem assays (depositor defined):AID1961, AID1965]; type: functional
[12] = molecular target: G-protein coupled receptor 55 (Homo sapiens, UniProt Q9Y2T6); test: SAR analysis of selective Agonists of GPR55 using an Image-Based Assay - Set 2. [Related pubchem assays (depositor defined):AID1961, AID1965]; type: functional
Cannabinoid receptor 1 [13] = molecular target: T3, Cannabinoid receptor 1 (Homo sapiens, UniProt P21554); test: SAR analysis of agonists of the Cannabinoid Receptor 1 using an Image-Based Assay - Set 3. [Related pubchem assays (depositor defined):AID1961, AID1965]; type: functional
Cannabinoid receptor 2 [14] = molecular target: T2, Cannabinoid receptor 2; test: SAR analysis of agonists of the Cannabinoid Receptor 2 using an Image-Based Assay - Set 2. [Related pubchem assays (depositor defined):AID1961, AID1965]; type: functional
[15] = molecular target: T4, G-protein coupled receptor 35 (Homo sapiens, UniProt Q9HC97); test: SAR analysis of Agonists of the GPR35 Receptor using an Image-Based Assay - Set 3. [Related pubchem assays (depositor defined):AID1961, AID1965]; type: functional
[16] = molecular target: T4, G-protein coupled receptor 35; test: SAR analysis of Antagonists of the GPR35 Receptor using an Image-Based Assay - Set 4. [Related pubchem assays (depositor defined):[…]]; type: functional
Cannabinoid receptor 1 [17] = molecular target: T3, Cannabinoid receptor 1; test: SAR analysis of antagonists of the Cannabinoid Receptor 1 using an Image-Based Assay - Set 3. [Related pubchem assays (depositor defined):AID1961, AID1965]; type: functional

Structure (SMILES): O=C(N/N=C/c1sc2ccccc2c1O)c1ccccc1
EC50 [1]: 0.702 µM (active) | AC50 [2]: 1.02 µM (active) | EC50 (Troponin, cardiac muscle): 3.91 µM (active) | EC50 (Streptococcus): 10.1 µM (active) | AC50 (INS1): 0.864 µM (active)

Structure (SMILES): Cc1ccc(C(=O)Nc2sc(C)c(-c3ccccc3)c2C(N)=O)cc1[N+](=O)[O-]
IC50 (HEK293 [3]): > 20 µM (inactive) | IC50 (HEK293 [4]): > 20 µM (inactive) | EC50 [5]: < 0.16 µM (active) | EC50 (HEK293 [6]): > 20 µM (inactive) | EC50 [7]: < 0.31 µM (inactive) | IC50 (HEK293 [8]): < 0.312 µM (active) | IC50 (HEK293 [9]): > 20 µM (inactive)

EC50 [10]: 0.502 µM (active)
Structure (SMILES): COc1cccc(Cn2nc3c4cc(F)ccc4n(Cc4ccc(F)cc4)cc-3c2=O)c1

IC50 (Cannabinoid receptor 2 [11]): > 32 µM (inactive) | EC50 [12]: 4.56 µM (active) | EC50 (Cannabinoid receptor 1 [13]): > 32 µM (inactive) | EC50 (Cannabinoid receptor 2 [14]): > 32 µM (inactive) | EC50 [15]: > 32 µM (inactive) | IC50 [16]: > 32 µM (inactive) | IC50 (Cannabinoid receptor 1 [17]): > 32 µM (inactive)
Structure (SMILES): COc1ccc(S(=O)(=O)N2CCOCC2)cc1NC(=O)c1ccc(OCC(C)C)c(OC)c1
